# Data as given in ChEMBL document CHEMBL1201862, “PubChem BioAssay data set” (2004).
# Calls of active or inactive are those of the source. Rule as the data show it, for most assays here: actives have a measured EC50 and inactives only a lower limit.
# Assays:
# H4 = experiment: Luminescence Cell-Based Dose Response HTS to Identify Activators of 5'UTR Stem-Loop Driven Prion Protein mRNA Translation in H4 Neuroglioblastoma Cells. [Related pubchem assays: 1829 (Project Summary), 1814 (Primary HTS)]; assay type: functional; settings: Homo sapiens
# [1] = Luminescence Cell-Based Dose Response HTS to Identify Activators of Luciferase Translation or Activity in H4 […] Cells. [Related pubchem assays: 1829 (Project Summary), 1814 (Primary HTS)]; assay type: functional
# [2] = Luminescence Cell-Based Dose Confirmation HTS to Identify Activators of 5'UTR Stem-Loop Driven Alpha-Synuclein mRNA Translation in H4 Neuroglioblastoma Cells. [Related pubchem assays: 1829 (Project Summary), 1814 (Primary HTS)]; assay type: functional
# [3] = HEp-2 cell cytotoxicity, dose response, cytotoxicity control for RSV inhibitor project, HTS (AID 2410); assay type: functional; settings: human respiratory syncytial virus
# [4] = growth suppression of beta-catenin-knockout colon cells, dose response, cell-based, HCT116, human colon tumor (AID 1045); assay type: functional;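 also: HCT116 colon tumor cells with beta catenin knocked out; cells exposed to compound for 60 hours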
# Streptococcus = experiment: Group A Streptococcus viability loss, dose response, counter-screen for streptokinase expression inhibitor project, luminescence, BacTiterGlo (AID 1915); assay type: functional, organism-based;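 also: potency for reduction of bacterial viability or growth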
# [5] = growth suppression of PTEN-null colon cells, dose response, cell-based, HCT116 PTEN knockout (AID 1047); assay type: functional;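 also: HCT116 colon tumor cells with PTEN knocked out; cells exposed to compound for 60 hours before readout; potency for loss of cell viability measured by luminescence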
# Streptokinase A = molecular target: T1, Streptokinase A (Streptococcus pyogenes serotype M1, UniProt P10520); experiment: S. pyogenes streptokinase expression inhibitors, potency, dose response, plasminogen activation absorbance, OD405 (AID 1914); assay type: functional, Streptococcus pyogenes M1 GAS;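 also: secreted streptokinase activity via plasminogen activation per viability signal from cell pellet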
# T1 sequence (P10520 whole entry): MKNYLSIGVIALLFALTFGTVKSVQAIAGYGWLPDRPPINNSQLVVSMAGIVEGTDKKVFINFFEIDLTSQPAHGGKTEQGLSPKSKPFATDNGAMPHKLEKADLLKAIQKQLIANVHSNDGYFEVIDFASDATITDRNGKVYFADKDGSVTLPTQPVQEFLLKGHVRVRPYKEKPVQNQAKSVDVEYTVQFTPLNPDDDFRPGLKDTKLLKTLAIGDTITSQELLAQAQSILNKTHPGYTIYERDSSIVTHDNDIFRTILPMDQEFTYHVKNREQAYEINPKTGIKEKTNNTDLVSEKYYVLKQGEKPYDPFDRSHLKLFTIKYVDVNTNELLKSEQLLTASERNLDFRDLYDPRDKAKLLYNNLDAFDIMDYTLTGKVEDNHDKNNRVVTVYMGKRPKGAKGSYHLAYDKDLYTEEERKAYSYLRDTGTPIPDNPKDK
# [6] = system: Streptococcus sp. 'group A'; experiment: growth inhibition of control SK(-) GAS strain, dose response, counter-screen for streptokinase expression inhibitor project, luminescence, kanamycin, BacTiterGlo, confirmation (AID 1900); assay type: functional, organism-based
# [7] = microbe, parasite or virus in culture; assay type: functional; settings: Mycobacterium tuberculosis
# [8] = NIH-3T3 fibroblast cytotoxicity, dose response, cytotoxicity control, cell-based, fluorescence, Alamar Blue, secondary assay (AID 2327); assay type: functional;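 also: NIH-3T3 mouse fibroblasts cultured with fluconazole at 8 µg/mL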
# [9] = C. albicans growth with fluconazole, confirmation, fluorescence, retest (AID 2467); assay type: functional, cell-based
# [10] = molecular target: T2, Ubiquitin-conjugating enzyme E2 N (Homo sapiens, UniProt P61088); assay type: functional;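 also: Dose-response confirmation in a TR-FRET assay detecting UBC13-driven polyubiquitin chain formation, inhibition measured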
# T2 sequence (P61088 whole entry): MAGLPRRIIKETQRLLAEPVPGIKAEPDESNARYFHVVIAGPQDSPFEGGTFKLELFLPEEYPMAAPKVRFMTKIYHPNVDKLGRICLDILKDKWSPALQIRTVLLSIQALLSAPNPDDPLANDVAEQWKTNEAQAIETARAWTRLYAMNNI
# [11] = molecular target: T3, Rac GTPase-activating protein 1 (Homo sapiens, UniProt Q9H0H5); experiment: MgcRacGAP GTPase-activating activity inhibitors, confirmation, biochemical, ADP Hunter fluorescence, primary and confirmatory (AID 624330); assay type: functional
# T3 sequence (Q9H0H5 whole entry): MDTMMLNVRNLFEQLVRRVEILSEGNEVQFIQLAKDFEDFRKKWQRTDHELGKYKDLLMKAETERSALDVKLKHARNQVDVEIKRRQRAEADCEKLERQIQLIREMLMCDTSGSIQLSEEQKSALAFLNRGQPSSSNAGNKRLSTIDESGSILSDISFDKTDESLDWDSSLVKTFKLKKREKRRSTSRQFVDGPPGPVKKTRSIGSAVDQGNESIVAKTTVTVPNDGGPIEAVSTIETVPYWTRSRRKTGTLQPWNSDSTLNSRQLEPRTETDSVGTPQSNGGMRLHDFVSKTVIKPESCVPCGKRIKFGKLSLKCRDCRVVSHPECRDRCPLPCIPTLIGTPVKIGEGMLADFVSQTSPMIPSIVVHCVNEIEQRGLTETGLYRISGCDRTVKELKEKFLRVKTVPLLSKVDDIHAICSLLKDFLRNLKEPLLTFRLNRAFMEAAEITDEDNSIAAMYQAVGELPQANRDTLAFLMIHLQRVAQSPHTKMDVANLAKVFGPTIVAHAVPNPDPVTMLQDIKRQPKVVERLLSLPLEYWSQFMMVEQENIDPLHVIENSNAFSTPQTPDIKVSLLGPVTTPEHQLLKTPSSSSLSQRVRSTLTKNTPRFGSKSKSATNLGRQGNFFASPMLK
# [12] = molecular target: Luciferin 4-monooxygenase (Photinus pyralis, UniProt P08659); experiment: firefly luciferase enzyme inhibitors, dose response, biochemical, luminescence (AID 1891)
# Sequence of Luciferin 4-monooxygenase (P08659 whole entry): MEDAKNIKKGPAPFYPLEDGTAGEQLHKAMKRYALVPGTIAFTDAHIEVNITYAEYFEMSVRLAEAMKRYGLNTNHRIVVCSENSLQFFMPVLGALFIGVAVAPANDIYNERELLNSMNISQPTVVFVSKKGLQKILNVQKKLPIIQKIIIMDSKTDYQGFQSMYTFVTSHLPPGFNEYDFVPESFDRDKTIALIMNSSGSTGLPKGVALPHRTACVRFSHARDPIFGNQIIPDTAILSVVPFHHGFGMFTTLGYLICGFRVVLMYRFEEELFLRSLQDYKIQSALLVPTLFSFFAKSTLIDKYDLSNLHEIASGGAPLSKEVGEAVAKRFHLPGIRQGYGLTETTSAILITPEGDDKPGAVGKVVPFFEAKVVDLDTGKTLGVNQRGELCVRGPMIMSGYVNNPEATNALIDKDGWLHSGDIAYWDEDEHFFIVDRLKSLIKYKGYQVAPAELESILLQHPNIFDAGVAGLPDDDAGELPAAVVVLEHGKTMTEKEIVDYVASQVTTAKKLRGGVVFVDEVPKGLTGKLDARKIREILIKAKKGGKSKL
# [13] = Luminescence Cell-Based Dose Confirmation HTS to Identify Inhibitors of Platelet Dense Granule Release. [Related pubchem assays: 1663 (Primary HTS), 1678 (Summary of Project)]; assay type: functional
# INS1 = experiment: beta cell apoptosis inhibitors, cytokine rescue, dose response, luminescence, retest (AID 449756); assay type: functional, cell-based; settings: Rattus norvegicus;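 also: cell death triggered by IL-1 beta plus TNF-alpha plus IFN-gamma mixture; protective hits raise ATP signal compared with cytokine alone wells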
# [14] = inhibitors of intracellular T. cruzi replication, confirmation, NIH3T3 host cells, beta-gal luminescence (AID 2044); assay type: functional, cell-based;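 also: intracellular parasites grown in NIH/3T3 mouse fibroblasts as host cells; luminescent beta-galactosidase reporter signal from transgenic T. cruzi replicating inside host cells; inhibitors lower the luminescence signal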
# [15] = cytotoxicity toward NIH3T3 fibroblasts, dose response, counter-screen, cell-based, ATP luminescence, mouse fibroblasts (AID 2010); assay type: functional;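 also: cells exposed to compound for about 90 hours before reading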
smiles,measurement,setting,value
CCC1=NN2C(=N)/C(=C\c3ccc(OCCOc4ccccc4)c(OC)c3)C(=O)N=C2S1,EC50,H4,5.43 µM (active)
same,EC50,[1],8.4 µM (active)
same,EC50,[2],9.45 µM (active)
CN1C(=O)C(CC(=O)Nc2ccccc2F)N(NC(=O)c2ccc(Br)cc2)C1=S (centres undefined),CC50,[3],6.39 µM (active)
CC12CCC(c3c(C(=O)Nc4nccs4)nn(-c4ccccc4)c31)C2(C)C (centres undefined),EC50,[4],24.2 µM (active)
same,EC50,Streptococcus,> 150 µM (not active)
same,EC50,[5],38.1 µM (active)
same,EC50,Streptokinase A,28.5 µM (active)
same,EC50,[6],6.56 µM (active)
CC(C)c1ccc2c(c1)CCC1C(C)(CN)CCCC21C (centres undefined),CC50,[7],7.48 µM (active)
same,EC50,[8],9.63 µM (inconclusive)
same,EC50,[9],> 38 µM (not active)
COCC(=O)O[C@]1(CCN(C)CCCc2nc3ccccc3[nH]2)CCc2cc(F)ccc2[C@@H]1C(C)C,CC50,[7],14.2 µM (active)
same,IC50,[10],> 20 µM (inactive)
O=C(CSCC(=O)N1CCOCC1)Nc1nc(-c2ccc3c(c2)OCO3)cs1,EC50,H4,> 120 µM (not active)
same,EC50,[1],56.1 µM (active)
same,EC50,[2],86.3 µM (active)
N/N=C(\Cc1cscn1)c1ccc(O)cc1O,IC50,[11],53.3 µM (active)
same,EC50,[12],> 112 µM (not active)
same,EC50,[13],62.6 µM (active)
COc1ccc(C(=O)N/N=C/C(=O)c2ccccc2)cc1,EC50,H4,6.93 µM (active)
same,EC50,[1],1.9 µM (active)
same,EC50,[2],5.67 µM (active)
CCn1c(=O)c(C(=O)Nc2ccccn2)c(O)c2ccccc21,AC50,INS1,30.2 µM (active)
CCn1cc(SCC(=O)N2CCOCC2)c2ccccc21,EC50,H4,> 120 µM (not active)
same,EC50,[1],82.1 µM (active)
same,EC50,[2],5.63 µM (active)
C/N=c1\scc(C)n1/N=C/c1cc(Br)c(O)c(Br)c1,IC50,[11],77 µM (active)
CN1CCN(/N=C/c2ccc(Cl)c(Cl)c2)CC1,EC50,H4,2.16 µM (active)
same,EC50,[1],31.7 µM (active)
same,EC50,[2],34.9 µM (active)
Cc1ccccc1-c1nnc(SCc2ccccc2)o1,EC50,[1],62.5 µM (active)
same,EC50,[2],7.97 µM (active)
Cc1ccc(-c2nnc(S)n2/N=C/c2c(C)nn(-c3ccccc3)c2C)cc1,EC50,[4],26 µM (active)
same,EC50,[5],25.8 µM (active)
N#C/C(=C\c1ccc(-c2ccc(Br)cc2)o1)C(=O)NCCc1c[nH]c2ccccc12,CC50,[7],> 40 µM (active)
CC(C)C[C@H]1CN=C(Nc2ccccc2)N1CCC(C)c1ccccc1 (some centres undefined),AC50,INS1,9.62 µM (active)
CCOC(=O)c1sc(NC(=O)Nc2ccc(Cl)cc2)nc1C,EC50,[4],80.8 µM (active)
same,EC50,[5],63.5 µM (active)
COc1cccc(CNCc2ccco2)c1O,IC50,[11],117 µM (active)
C#CCN(C(=O)c1cc(COc2cccc(C(F)(F)F)c2)on1)C1CCCCC1,AC50,INS1,> 120 µM (inactive)
Cc1c(C(=O)OCC(=O)N2C(C)CCCC2C)oc2ccccc12 (centres undefined),EC50,H4,72.9 µM (active)
same,EC50,[1],28.7 µM (active)
same,EC50,[2],14.6 µM (active)
COc1ccc(S(=O)(=O)N2CCN(C(=O)c3ccc([N+](=O)[O-])o3)CC2)cc1,EC50,H4,7.96 µM (active)
same,EC50,[1],7.51 µM (active)
same,EC50,[14],0.103 µM (active)
same,EC50,[15],> 30 µM (not active)
same,EC50,[2],> 120 µM (not active)
